We go through seven molecules from ChEMBL document CHEMBL1201862, “PubChem BioAssay data set” (2004).

SMILES strings stand for the structures. Calls of active or inactive are those of the source. Cut-off read from the data, not from the text of the source, for most assays here: actives have a measured EC50 and inactives only a lower limit.

Assay [1] can be described thus: A High Throughput Confirmatory Assay used to Identify Novel Compounds that Inhibit Mycobacterium Tuberculosis in the absence of Glycerol. Format: functional.
Assay [2] concerns the target T1, Eukaryotic translation initiation factor 2-alpha kinase 3 (Homo sapiens, UniProt Q9NZJ5).
T1 sequence (Q9NZJ5 whole entry): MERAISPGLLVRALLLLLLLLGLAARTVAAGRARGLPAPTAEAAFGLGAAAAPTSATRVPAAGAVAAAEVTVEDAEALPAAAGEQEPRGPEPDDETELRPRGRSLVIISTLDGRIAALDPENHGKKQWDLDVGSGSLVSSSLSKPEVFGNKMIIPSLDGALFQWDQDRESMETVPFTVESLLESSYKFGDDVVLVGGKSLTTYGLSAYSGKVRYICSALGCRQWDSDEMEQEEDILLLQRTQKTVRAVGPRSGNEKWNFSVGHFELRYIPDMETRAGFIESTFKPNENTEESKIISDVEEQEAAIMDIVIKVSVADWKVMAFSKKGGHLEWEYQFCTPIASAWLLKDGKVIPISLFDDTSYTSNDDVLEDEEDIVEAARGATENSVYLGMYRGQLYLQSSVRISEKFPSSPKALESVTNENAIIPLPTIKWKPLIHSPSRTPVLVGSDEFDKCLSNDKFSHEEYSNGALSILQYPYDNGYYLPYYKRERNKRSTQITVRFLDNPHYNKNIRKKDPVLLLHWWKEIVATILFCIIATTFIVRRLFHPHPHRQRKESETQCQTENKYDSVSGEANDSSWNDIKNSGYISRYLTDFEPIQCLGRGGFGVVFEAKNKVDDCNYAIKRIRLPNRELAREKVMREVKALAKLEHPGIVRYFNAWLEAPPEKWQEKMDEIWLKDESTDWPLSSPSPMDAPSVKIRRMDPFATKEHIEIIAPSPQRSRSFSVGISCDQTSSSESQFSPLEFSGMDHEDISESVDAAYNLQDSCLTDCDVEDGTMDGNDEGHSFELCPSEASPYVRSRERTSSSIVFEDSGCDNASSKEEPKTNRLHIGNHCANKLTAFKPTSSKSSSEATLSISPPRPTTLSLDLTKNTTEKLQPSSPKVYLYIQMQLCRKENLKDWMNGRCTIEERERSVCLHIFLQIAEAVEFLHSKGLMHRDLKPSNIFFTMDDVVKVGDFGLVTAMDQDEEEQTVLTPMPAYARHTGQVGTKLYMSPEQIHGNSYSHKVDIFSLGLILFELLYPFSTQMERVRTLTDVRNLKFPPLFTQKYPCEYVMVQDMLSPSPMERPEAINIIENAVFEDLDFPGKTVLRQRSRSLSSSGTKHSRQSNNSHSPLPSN
Briefly: Dose response cell-based high-throughput screening assay to measure PERK inhibition. [Related pubchem assays: 1416 ]. Type of assay: functional.

In assay [3] the target is T1, Eukaryotic translation initiation factor 2-alpha kinase 3. Briefly: Counterscreen assay for PERK inhibitors: Dose response cell-based high throughput screening assay to measure inhibition of PERK at 6 hours. [Related pubchem assays: 1522, 1416 ]. Type of assay: functional. (In general: A counterscreen serves to expose hits that act by an unwanted route or on another target.)

Assay [4] in a line: inhibitors of intracellular T. cruzi replication, confirmation, NIH3T3 host cells, beta-gal luminescence (AID 2044).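 Note: intracellular parasites grown in NIH/3T3 mouse fibroblasts as host cells; luminescent beta-galactosidase reporter signal from transgenic T. cruzi replicating inside host cells; inhibitors lower the luminescence signal.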 Format: functional, cell-based.
Assay [5] in a line: cytotoxicity toward NIH3T3 fibroblasts, dose response, counter-screen, cell-based, ATP luminescence, mouse fibroblasts (AID 2010).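 Note: cells exposed to compound for about 90 hours before reading.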 Format: functional.
The test system of another assay is HeLa. The assay can be described thus: HeLa cell cytotoxicity, dose response, cytotoxicity control, 24 h, cherry-picked samples (AID 504726).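 Note: potency for cytotoxicity as loss of luminescence signal.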 Format: functional, cell-based. Particulars: Homo sapiens.
Assay [6] in a line: A Cell Based Secondary Assay To Explore Cytotoxicity of Compounds that Sensitize Mycobacterium Tuberculosis to Beta-Lactam Antibiotics. Format: functional.
Assay [7] in a line: inhibitors of firefly luciferase expression or activity, dose response, H4 neuroglioma cells, luminescence (AID 1990). Type of assay: functional, cell-based.
The nature of assay [8]: luciferase reporter signal reduction – luminescence, H4-C neuroglioblastoma cells, dose response (AID 2458).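 Note: H4 neuroglioblastoma cells stably carrying a luciferase reporter gene fusion.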 Type of assay: functional, cell-based.
Assay [9] has as its target Peroxisome proliferator-activated receptor gamma/Nuclear receptor coactivator 1 (Homo sapiens, UniProt P37231). Briefly: TR-FRET dose response biochemical High Throughput Screening assay for agonists of the steroid receptor coactivator 1 (SRC-1) recruitment by the peroxisome proliferator-activated receptor gamma (PPAR gamma): non-selective agonists. [Related pubchem assays (depositor defined):AID1300, AID1808, AID504735, AID631]. Type of assay: protein assay. (In general: Time-resolved FRET reads energy transfer from a long-lived donor to a nearby acceptor.)

Another assay can be described thus: cells. Type of assay: functional, cell-based.
Assay [10] can be described thus: Luminescence Cell-Based Dose Response HTS to Identify Inhibitors of 5'UTR Stem-Loop Driven Prion Protein mRNA Translation in H4 Neuroglioblastoma Cells. [Related pubchem assays: 1827 (Project Summary), 1813 (Primary HTS)]. Format: functional.
The target of assay [11] is Peroxisome proliferator-activated receptor gamma/Nuclear receptor coactivator 3 (Homo sapiens, UniProt P37231). The assay can be described thus: TR-FRET dose response biochemical High Throughput Screening assay for agonists of the steroid receptor coactivator 3 (SRC-3) recruitment by the peroxisome proliferator-activated receptor gamma (PPAR gamma): non-selective agonists. [Related pubchem assays: 1301 (Confirmation screen.), 1048 (Primary screen.)]. Type of assay: functional.
Sequence of Peroxisome proliferator-activated receptor gamma/Nuclear receptor coactivator 3 (P37231 whole entry): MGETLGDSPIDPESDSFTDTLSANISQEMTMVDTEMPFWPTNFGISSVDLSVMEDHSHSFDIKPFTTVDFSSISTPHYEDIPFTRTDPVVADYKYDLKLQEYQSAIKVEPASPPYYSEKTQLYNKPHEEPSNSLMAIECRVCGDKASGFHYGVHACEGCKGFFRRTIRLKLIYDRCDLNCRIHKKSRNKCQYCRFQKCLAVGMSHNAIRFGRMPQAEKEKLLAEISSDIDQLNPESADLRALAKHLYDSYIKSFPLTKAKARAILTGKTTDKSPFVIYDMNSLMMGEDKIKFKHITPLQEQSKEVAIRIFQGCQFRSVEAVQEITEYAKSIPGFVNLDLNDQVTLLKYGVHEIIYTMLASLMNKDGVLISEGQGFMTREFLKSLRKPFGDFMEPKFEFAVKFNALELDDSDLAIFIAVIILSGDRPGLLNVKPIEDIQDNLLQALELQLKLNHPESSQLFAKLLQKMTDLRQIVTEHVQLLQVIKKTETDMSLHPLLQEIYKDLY
Sequence of Peroxisome proliferator-activated receptor gamma/Nuclear receptor coactivator 3 (Q9Y6Q9 whole entry, further chain): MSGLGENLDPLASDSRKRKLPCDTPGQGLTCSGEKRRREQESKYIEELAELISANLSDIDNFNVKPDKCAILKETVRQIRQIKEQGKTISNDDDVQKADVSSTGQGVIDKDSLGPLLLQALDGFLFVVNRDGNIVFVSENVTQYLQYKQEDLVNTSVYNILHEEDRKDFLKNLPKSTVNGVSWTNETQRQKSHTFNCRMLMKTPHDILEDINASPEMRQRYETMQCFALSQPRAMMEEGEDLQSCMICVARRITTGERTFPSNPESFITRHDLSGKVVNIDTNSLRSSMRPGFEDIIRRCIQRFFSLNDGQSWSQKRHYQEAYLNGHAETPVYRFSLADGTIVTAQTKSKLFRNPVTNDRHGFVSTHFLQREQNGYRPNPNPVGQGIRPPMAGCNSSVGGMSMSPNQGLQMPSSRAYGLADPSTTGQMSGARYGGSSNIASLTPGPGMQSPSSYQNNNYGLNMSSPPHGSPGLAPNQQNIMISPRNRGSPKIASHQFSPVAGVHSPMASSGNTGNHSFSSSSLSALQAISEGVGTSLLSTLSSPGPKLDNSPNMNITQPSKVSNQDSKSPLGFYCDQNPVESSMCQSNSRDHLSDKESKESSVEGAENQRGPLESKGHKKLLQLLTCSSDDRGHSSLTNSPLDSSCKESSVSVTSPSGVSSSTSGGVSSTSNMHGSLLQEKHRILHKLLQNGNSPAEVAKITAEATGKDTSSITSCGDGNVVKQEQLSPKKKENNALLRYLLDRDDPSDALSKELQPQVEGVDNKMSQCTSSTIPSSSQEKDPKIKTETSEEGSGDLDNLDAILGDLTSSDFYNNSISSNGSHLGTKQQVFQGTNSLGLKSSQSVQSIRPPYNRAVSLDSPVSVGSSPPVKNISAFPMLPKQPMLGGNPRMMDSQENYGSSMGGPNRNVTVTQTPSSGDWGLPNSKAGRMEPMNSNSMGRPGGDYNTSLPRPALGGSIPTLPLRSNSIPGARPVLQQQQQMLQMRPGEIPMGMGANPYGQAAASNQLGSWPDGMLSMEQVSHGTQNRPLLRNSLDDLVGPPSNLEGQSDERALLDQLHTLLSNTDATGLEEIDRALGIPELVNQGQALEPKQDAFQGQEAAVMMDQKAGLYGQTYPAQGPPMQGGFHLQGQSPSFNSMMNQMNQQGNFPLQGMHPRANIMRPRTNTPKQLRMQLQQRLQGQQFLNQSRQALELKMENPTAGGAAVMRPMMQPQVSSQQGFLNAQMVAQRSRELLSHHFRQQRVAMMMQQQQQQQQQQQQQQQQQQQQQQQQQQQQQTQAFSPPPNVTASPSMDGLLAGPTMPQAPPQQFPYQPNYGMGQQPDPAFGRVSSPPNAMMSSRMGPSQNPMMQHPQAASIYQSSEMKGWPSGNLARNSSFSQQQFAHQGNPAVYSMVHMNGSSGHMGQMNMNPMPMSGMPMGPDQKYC

The target of assay [12] is Peroxisome proliferator-activated receptor gamma/Nuclear receptor coactivator 2 (Homo sapiens, UniProt P37231). Briefly: TR-FRET dose response biochemical High Throughput Screening assay for agonists of the steroid receptor coactivator 2 (SRC-2) recruitment by the peroxisome proliferator-activated receptor gamma (PPAR gamma): non-selective agonists. [Related pubchem assays: 1297, 1032 ]. Format: functional.

Assay [13] in a line: inhibitors of SNCA 5'UTR-driven translation, confirmation, luminescence, H4 neuroglioblastoma cells, dose confirmation (AID 2454).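 Note: H4 neuroglioblastoma cells carrying an alpha-synuclein 5'UTR luciferase reporter; potency for inhibition of the luciferase signal.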 Format: functional, cell-based.
A short description of assay [14]: A549 cell cytotoxicity, dose response, cytotoxicity control, plate reader, cherry-pick, antagonist series (AID 743412). Format: functional, cell-based.
A short description of assay [15]: LGR2 antagonists, dose response, cell-based, HEK293, CRE-luciferase reporter, cherry pick, set 2 (AID 743343).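 Note: transfected cells were stimulated with diluted bursicon conditioned medium after compound addition.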 Type of assay: functional. (A reporter such as luciferase makes a cellular process visible.)
A short description of assay [16]: MC4R antagonists, dose response, counter-screen for LGR2 antagonist project, cell-based, plate reader, cherry pick (AID 743444).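 Note: transfected HEK 293 cells stimulated with alpha-MSH peptide; potency of inhibitors of the alpha-MSH evoked signal.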 Type of assay: functional.
Assay [17] deals with Melanin-concentrating hormone receptor 1 (Homo sapiens, UniProt Q99705). The assay can be described thus: Late-stage fluorescence-based counterscreen for antagonists of the G-protein coupled receptor 7 (GPR7): cell-based dose response assay to identify antagonists of the melanin-concentrating hormone receptor 1 (MCHR1). [Related pubchem assays (depositor defined):AID1861, AID1880, AID1952, AID2148, AID2251, AID2257, AID485339]. Format: functional.
Sequence of Melanin-concentrating hormone receptor 1 (Q99705 whole entry): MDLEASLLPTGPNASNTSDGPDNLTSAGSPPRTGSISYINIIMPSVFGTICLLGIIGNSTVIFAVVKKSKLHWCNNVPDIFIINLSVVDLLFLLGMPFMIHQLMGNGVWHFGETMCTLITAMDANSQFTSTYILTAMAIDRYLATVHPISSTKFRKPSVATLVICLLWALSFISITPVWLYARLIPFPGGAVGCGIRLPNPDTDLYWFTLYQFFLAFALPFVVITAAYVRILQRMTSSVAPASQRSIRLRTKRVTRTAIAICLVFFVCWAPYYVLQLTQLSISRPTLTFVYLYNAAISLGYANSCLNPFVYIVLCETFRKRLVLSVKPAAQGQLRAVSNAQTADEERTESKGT

The subject of assay [18] is BJ. The assay can be described thus: cytotoxicity toward BJ-TERT fibroblasts, dose response, cell-based, RAS-independent, luminescence (AID 1933). Particulars: Homo sapiens. Type of assay: functional.
Assay [19] can be described thus: inhibitors of SNCA 5'UTR-driven reporter translation, confirmation, H4 neuroglioma cells, luminescence (AID 1988). Type of assay: functional, cell-based.
In assay [20] the test system is BJ. The assay can be described thus: cells. Particulars: Homo sapiens. Type of assay: functional, cell-based.
Assay [21] concerns BJ. The assay can be described thus: cytotoxicity toward BJ-TERT-LT-ST fibroblasts, dose response, cell-based, RAS-independent, luminescence (AID 1935).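 Note: BJ fibroblasts immortalized with TERT plus LT and ST oncogenes.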 Conditions: Homo sapiens. Format: functional.
A short description of assay [22]: cytotoxicity toward DRD oncogenic fibroblasts, dose response, cell-based, non-viral oncogenic, luminescence (AID 1934). Conditions: Homo sapiens. Type of assay: functional.
For assay [23], the system named is BJ. The assay can be described thus: cytotoxicity toward Ras-transformed BJeLR fibroblasts, dose response, cell-based, alamar blue fluorescence, cherrypicked samples (AID 2631).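 Note: confirmatory dose-response assay in RAS-dependent BJ fibroblasts engineered with TERT, LT and ST, with cytotoxicity read by fluorescence.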 Type of assay: functional. Particulars: Homo sapiens.

Sequence of Peroxisome proliferator-activated receptor gamma/Nuclear receptor coactivator 1 (P37231 whole entry): as the sequence (P37231 whole entry) above
Sequence of Peroxisome proliferator-activated receptor gamma/Nuclear receptor coactivator 1 (Q15788 whole entry, further chain): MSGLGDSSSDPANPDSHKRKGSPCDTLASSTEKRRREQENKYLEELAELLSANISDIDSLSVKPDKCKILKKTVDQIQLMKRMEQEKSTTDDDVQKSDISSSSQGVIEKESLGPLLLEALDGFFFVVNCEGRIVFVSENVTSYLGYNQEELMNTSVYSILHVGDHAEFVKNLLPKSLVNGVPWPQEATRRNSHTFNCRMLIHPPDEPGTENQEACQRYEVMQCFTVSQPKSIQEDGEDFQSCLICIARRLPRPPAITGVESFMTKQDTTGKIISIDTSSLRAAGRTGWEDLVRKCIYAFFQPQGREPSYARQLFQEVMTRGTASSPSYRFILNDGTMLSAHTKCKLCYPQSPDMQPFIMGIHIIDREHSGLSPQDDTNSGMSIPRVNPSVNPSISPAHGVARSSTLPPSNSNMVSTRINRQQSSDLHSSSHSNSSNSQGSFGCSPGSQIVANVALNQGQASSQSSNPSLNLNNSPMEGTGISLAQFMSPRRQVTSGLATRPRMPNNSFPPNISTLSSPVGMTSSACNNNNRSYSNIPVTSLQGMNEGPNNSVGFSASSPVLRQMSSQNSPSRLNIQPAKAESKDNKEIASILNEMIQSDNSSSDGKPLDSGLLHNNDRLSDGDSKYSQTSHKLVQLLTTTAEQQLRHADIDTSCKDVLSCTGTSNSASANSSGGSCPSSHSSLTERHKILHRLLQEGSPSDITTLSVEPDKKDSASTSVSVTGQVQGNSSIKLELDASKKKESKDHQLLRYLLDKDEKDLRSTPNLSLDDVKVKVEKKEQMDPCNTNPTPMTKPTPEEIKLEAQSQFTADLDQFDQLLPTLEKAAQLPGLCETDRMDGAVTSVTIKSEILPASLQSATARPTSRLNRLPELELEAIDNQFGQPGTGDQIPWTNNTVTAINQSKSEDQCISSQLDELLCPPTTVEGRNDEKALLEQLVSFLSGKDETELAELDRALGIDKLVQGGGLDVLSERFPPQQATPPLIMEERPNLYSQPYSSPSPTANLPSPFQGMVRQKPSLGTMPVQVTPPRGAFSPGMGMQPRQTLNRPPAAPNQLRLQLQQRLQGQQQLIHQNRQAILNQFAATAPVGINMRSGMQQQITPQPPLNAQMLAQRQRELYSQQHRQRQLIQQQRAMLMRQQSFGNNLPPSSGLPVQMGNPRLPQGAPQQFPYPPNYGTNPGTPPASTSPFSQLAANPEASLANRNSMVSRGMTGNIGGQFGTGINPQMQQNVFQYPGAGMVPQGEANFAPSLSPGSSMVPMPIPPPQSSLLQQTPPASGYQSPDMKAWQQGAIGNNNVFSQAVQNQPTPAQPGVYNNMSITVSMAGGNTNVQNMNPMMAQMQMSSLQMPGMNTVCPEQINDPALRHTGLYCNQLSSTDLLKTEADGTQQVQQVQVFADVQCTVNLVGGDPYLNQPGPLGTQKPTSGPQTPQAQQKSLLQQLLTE

For the molecule `Cc1nn(-c2ccccc2)c(Cl)c1C(=O)Nc1nnc(C2CCCCC2)s1`, the IC50 (usually the midpoint of a concentration-inhibition curve) in [1] is > 50 µM (active).
For the molecule `O=C(NNC(=O)C1CCCN(S(=O)(=O)c2ccc3ccccc3c2)C1)C1CC1` (stereo not given), the EC50 (as a rule, the concentration that produces a half-maximal response) is 23.2 µM (not active) in [2] and > 55.7 µM (not active) in [3].
With `Cc1ccc(-c2nnn(CC(=O)NC3CCN(Cc4ccccc4)CC3)n2)cc1`, the results for the EC50 in assay [4] and in assay [5] were 0.141 µM (active) and > 60 µM (not active), respectively. The AC50 (in general, the midpoint of the concentration-response curve, whichever way the signal moves) in the assay on HeLa was 276 µM (active).
Turning to `O=C1C=C2C=C[C@@H]3CC2(O1)[C@H]1CCCCN31`, the CC50 (as a rule, the concentration that lowers cell viability or growth by half) in assay [6] was 39.4 µM (active).
Regarding `O=C(c1ccccc1)N1CCSc2sccc2C1=O`, the EC50 in assay [7] is 7.87 µM (active); in assay [8], 0.896 µM (active); in [9], 18.9 µM (inactive); in “cells” it was 7.25 µM (active); in assay [10] it was < 0.1 µM (active); in assay [11] it was > 79.4 µM (not active). The results for the EC50 in [12] and in assay [13] were 15.8 µM (not active) and 1.08 µM (active), respectively. Moreover, the AC50 in assay [14] is > 52 µM (inactive); in assay [15], 4 µM (active); in [16], 3.77 µM (active).
In the case of `COc1ccc(Oc2c(Cl)cnn(-c3ccc(C4CC4)cc3)c2=O)cc1`, the half-maximal inhibitory concentration (IC50) in assay [17] was 6.8 µM (active).
On to `O=C(N/N=C/c1cccs1)c1cc(-c2ccncc2)nc2ccccc12`, for which the 50% effective concentration (EC50) was 4.61 µM (active) in [7]; > 12 µM (inconclusive) in [8]; 0.602 µM (active) in the assay on BJ [18]; 2.19 µM (active) in the assay “cells”; 0.294 µM (active) in assay [10]; < 0.1 µM (active) in assay [19]. Besides, the EC50 was 0.712 µM (active) in the assay on BJ [20]; 0.671 µM (active) with BJ [21]; 0.463 µM (active) in assay [22]; > 12 µM (inconclusive) in assay [13]; 0.24 µM (active) with BJ [23].
